Here are results for two molecules from patent US7666454B2, “Cosmetic composition comprising an essential oil extracted from Helichrysum italicum” (L'Occitane, priority 2001, dated 2010).

This assay has as its system human endothelial cells in co-culture (AngioKit). As to the kind of experiment: AngioKit in vitro angiogenesis model (tubule formation, CD31 staining, image analysis). The class given is cell-based. The method, then:
The in vitro model we used was the AngioKit (Biopredic—ref ZHA-1000—lot no. 25173T) which approaches a more global vision of angiogenesis. In this model, human endothelial cells are seeded in a specific medium in co-culture with another type of human cells. In the initial phase, the endothelial cells form small islets. They begin to proliferate and then enter into a migration phase which leads to formation of structures of filamentous tubule form in the matrix. At the end of 10 to 12 days, the connections established form a network of anastomosed tubules. The staining of the tubules is obtained by specific marking of the antigen of surface antigen CD31 (PECAM-1), which is expressed by the endothelial cells.
The test is validated by staining the tubules and verification of the inhibitory and activating action of two pharmacological compounds known to act on angiogenesis. The action on angiogenesis of the active ingredients tested was evaluated by quantitative image analysis.
The cells were cultured in 24-well plates in an incubator at 37° C. under a humid atmosphere containing 5% CO2.
The specific culture medium was eliminated and the cells were placed under different experimental conditions:
Negative control: suramin, agent inhibiting formation of tubules—final concentration: 20 μM;
Positive control: VEGF, activating agent of angiogenesis—final concentration: 2 ng/ml;
Composition for the face: Since this composition of essential oils is not miscible in the culture medium, it was dissolved in absolute ethanol and tested at three concentrations (the non-cytotoxic character of which had been verified in advance by 24-hour contact with normal human fibroblasts): 0.005%-0.01%-0.05% (v/v); and
Solvent control: since ethanol could have effects on angiogenesis, it was tested at the final concentration required for dissolving the essential oils composition: 0.1% (v/v).
Each condition was implemented in duplicate. Microscopic observation of the cells was performed daily to monitor formation of tubules as shown in the photograph of FIG. 2.
The media were eliminated and the conditions were renewed on the 3rd, 6th and 9th day of the experiment. On the 10th day, the cells were fixed and stained: after rinsing in the PBS buffer, the cells were fixed in a 70% ethanol solution cooled at −20° C. for 30 minutes. The cells were then incubated for 1 hour at 37° C. with the human anti-CD-31 ZIS-3090 antibody (TCS CellWorks). […]
Evaluation of the angiogenic power of the compound tested was quantified by image analysis (Olympus IX70 Auto Analysis System) by measuring the length of the tubules developed (in μm) and the number of junctions established within the anastomosed network. […]

With `Cc1ccc(C(=O)Nc2ccc(S(=O)(=O)O)c3cc(S(=O)(=O)O)cc(S(=O)(=O)O)c23)cc1NC(=O)c1cccc(NC(=O)Nc2cccc(C(=O)Nc3cc(C(=O)Nc4ccc(S(=O)(=O)O)c5cc(S(=O)(=O)O)cc(S(=O)(=O)O)c45)ccc3C)c2)c1` [suramin], the inhibition (usually the share of the control response that was lost under treatment) at 20 µM (Homo sapiens, Endothelial cell, 240 h, read-out: inhibition of the length of the tubular network compared to the control) was 49%. For the setting “suramin 20 μM, day 10”, the “number of junctions diminished by a factor compared to the control” value is on record as 5.7.
Regarding VEGF, for the setting “VEGF 2 ng/ml, day 10”, the “number of junctions augmented by a factor compared to the control” value was found to be 1.7 and the “stimulator effect on the length of the tubular network compared to the control” value was found to be 54%.
